Measurements published in article PMC12615863, “Improving GRPR-targeting peptides for radiotheranostics application: insights from chelator modifications and α-methyl-L tryptophan substitution” (EJNMMI Radiopharmacy and Chemistry, 2025).
Where two headings read alike, the source gives them in different places.

What was measured:
PC-3 cells = assay: In vitro GRPR specificity assay (uptake with or without NOTA-PEG2-RM26 block); assay type: cell-based, human
Method: After discarding the medium, the cells were washed with cold (4 °C) phosphate-buffered saline containing 1% w/v bovine serum albumin (PBS/BSA). The radiopeptides (Cf = 1 nM in 1 mL PBS/BSA) were added to all wells. A subset of wells was also treated with an excess of unlabeled GRPR-binding peptide NOTA-PEG2-RM26 (Bjäreback et al. [2025]) (Cf = 1 µM in 1 mL PBS/BSA) to block GRPR. After incubation for 1 h at 37 °C, the supernatant was removed, and the cells were washed and then collected by treating them with 1 M NaOH. The activity of the collected samples was measured with the gamma counter. This assay was performed in triplicate for each radiopeptide.

[1] = In vivo stability: intact radiopeptide in peripheral mouse blood 5 min pi, radio-HPLC; settings: for Percentage of intact peptide, Entresto: blood 5 min pi
Method: Two animals per peptide were injected intravenously with a bolus of test radioligand (50 MBq, 2 nmol of peptide in 100 μL PBS/EtOH v/v 9:1) – Control group. To inhibit NEP, additional groups of two mice per compound were orally treated with 12 mg Entresto® (Novartis, Basel, Switzerland) 30 min before receiving the intravenous injection—Entresto group. Five minutes post-injection (pi), the animals were euthanized, and the blood was collected and immediately mixed with EDTA (0.1 mM, 40 μL) in Eppendorf tubes on ice. The mixture was spun at 2000 g for 10 min at 4 °C in an Eppendorf Centrifuge 5430 R (Eppendorf AG, Hamburg, Germany), and the plasma was collected and diluted with an equal volume of MeCN (4 °C). After a second centrifugation at 15,000 g and 4 °C for 10 min, the supernatant was collected in an Eppendorf tube and concentrated to 50–100 μL at 50 °C using a mild stream of N2. PBS was added to the samples to reach a final volume of 200 μL, and the solutions were filtered through a syringe filter (0.22 μm, 13 mm, VWR International, Radnor, USA). The filtered solution was analyzed by reversed-phase radio-HPLC to determine the percentage of intact peptides. The peak corresponding to the intact peptide was identified by injection of an aliquot of the labeling solution.

PC-3 xenografts = assay: Biodistribution in mice bearing PC-3 xenografts; assay type: in vivo, Balb/c nu/nu mice; settings: PC-3 xenografted mice, between 4 and 24 h pi
Method: (§1) Each mouse was xenografted with a subcutaneous injection of 8 × 10⁶ PC-3 cells in the right hind leg. After approximately 4 weeks, the animals were injected into the tail vein with 100 µL of radiopeptide (100 pmol—110–130 kBq, diluted in PBS/BSA). Four animals were used for each time point per peptide. […] At the determined time points, the mice were euthanized, organs were collected and weighed, and their activity content was measured in the gamma counter. Results were presented as the percentage of injected activity per gram (%IA/g) for the collected organs, and the percentage of injected activity (%IA) for the gastrointestinal tract (GI) and the carcass. […] Statistical analysis was performed with GraphPad Prism 10 using two way ANOVA with Tuckey’s or Šidák’a post hoc analysis.

[2] = Biodistribution in mice bearing PC-3 xenografts; assay type: in vivo, Balb/c nu/nu mice; settings: mouse, total radioactivity, PC-3 xenografted Balb/c nu/nu mice, iv 100 pmol, mean ± SD; for tissue uptake at 2 h / tissue uptake at 4 h / tissue uptake at 24 h: Balb/c nu/nu, iv; for tissue uptake at 4 h / tissue uptake dose at 4 h: 4 h pi; for tissue uptake at 24 h / tissue uptake dose at 24 h: 24 h pi
Method: as §1

[3] = blood, 100 pmol, n = 4, read-out: Blood activity uptake
[4] = bone, 100 pmol, n = 4, read-out: Bone activity uptake
[5] = kidneys, 100 pmol, n = 4, read-out: Kidneys activity uptake
[6] = liver, 100 pmol, n = 4, read-out: Liver activity uptake
[7] = lungs, 100 pmol, n = 4, read-out: Lungs activity uptake
[8] = muscle, 100 pmol, n = 4, read-out: Muscle activity uptake
[9] = pancreas, 100 pmol, n = 4, read-out: Pancreas activity uptake
[10] = small intestine, 100 pmol, n = 4, read-out: Small Int. activity uptake
[11] = spleen, 100 pmol, n = 4, read-out: Spleen activity uptake
[12] = stomach, 100 pmol, n = 4, read-out: Stomach activity uptake
[13] = tumor, 100 pmol, n = 4, read-out: Tumor activity uptake
[14] = carcass, n = 4, read-out: Body activity uptake
[15] = gastrointestinal tract with content, n = 4, read-out: GI activity uptake

For `CC(C)C[C@H](NC(=O)C[C@H](O)[C@H](CC(C)C)NC(=O)[C@H](Cc1c[nH]cn1)NC(=O)CN(C)C(=O)[C@@H](NC(=O)[C@H](C)NC(=O)[C@](C)(Cc1c[nH]c2ccccc12)NC(=O)[C@H](CCC(N)=O)NC(=O)[C@@H](Cc1ccccc1)NC(=O)CN1CCC(NC(=O)COCCOCCNC(=O)CN2CCN(CC(=O)O)CCN(CC(=O)O)CCN(CC(=O)O)CC2)CC1)C(C)C)C(N)=O` [[^177Lu]Lu-PKB3, metal not drawn], the “in vitro binding specificity” value (PC-3 cells; 1 nM radiopeptide, 1 h at 37 °C, block with 1 µM NOTA-PEG2-RM26, n = 3) was “GRPR-mediated activity uptake”, the “total cellular activity uptake (rank among the three radiopeptides)” value (PC-3 cells; 1 nM, 37 °C, n = 3) was “highest” and the “Percentage of intact peptide, Entresto” value ([1]; NMRI mice, 12 mg Entresto orally 30 min before injection, recorded value n1) was 90% [90% - 90%]. The “Percentage of intact peptide, Entresto” value ([1]; NMRI mice, 12 mg Entresto orally 30 min before injection, recorded value n2) was 90% [90% - 90%], the “Percentage of intact peptide, Entresto” value ([1]; healthy NMRI mice, 12 mg Entresto orally 30 min before iv injection (NEP inhibition), radio-HPLC, mean of n = 2) was 90% [90% - 90%] and the “Percentage of intact peptide, Control” value ([1]; healthy NMRI mice, iv 50 MBq, 2 nmol, peripheral blood 5 min pi, radio-HPLC, mean of n = 2) was 91% [88% - 94%]. For the same compound, the “tumor retention of activity” value (PC-3 xenografts) was “around 80%”, the tissue uptake at 2 h ([2]; blood, 100 pmol, 2 h pi, n = 4, read-out: Blood activity uptake) was 0.22 ± 0.04 %ID/g and the tissue uptake at 4 h [2, 3] was 0.09 ± 0.02 %ID/g. The tissue uptake at 24 h [2, 3] was 0.02 ± 0.01 %ID/g, the tissue uptake at 2 h ([2]; blood, 2 h pi blocked (co-injected 100-fold molar excess NOTA-PEG2-RM26), n = 3, read-out: Blood activity uptake) was 0.13 ± 0.06 %ID/g and the tissue uptake at 2 h ([2]; bone, 100 pmol, 2 h pi, n = 4, read-out: Bone activity uptake) was 0.16 ± 0.03 %ID/g. It also gave a tissue uptake at 4 h [2, 4] of 0.13 ± 0.04 %ID/g, a tissue uptake at 24 h [2, 4] of 0.08 ± 0.03 %ID/g and a tissue uptake at 2 h ([2]; bone, 2 h pi blocked (co-injected 100-fold molar excess NOTA-PEG2-RM26), n = 3, read-out: Bone activity uptake) of 0.11 ± 0.03 %ID/g. For the same compound, the tissue uptake at 2 h ([2]; kidneys, 100 pmol, 2 h pi, n = 4, read-out: Kidneys activity uptake) was 7.4 ± 1 %ID/g, the tissue uptake at 4 h [2, 5] was 5.9 ± 0.8 %ID/g and the tissue uptake at 24 h [2, 5] was 4.3 ± 0.8 %ID/g. It also gave a tissue uptake at 2 h ([2]; kidneys, 2 h pi blocked (co-injected 100-fold molar excess NOTA-PEG2-RM26), n = 3, read-out: Kidneys activity uptake) of 5.4 ± 0.7 %ID/g, a tissue uptake at 2 h ([2]; liver, 100 pmol, 2 h pi, n = 4, read-out: Liver activity uptake) of less than 0.5 %ID/g and a tissue uptake at 4 h [2, 6] of 0.42 ± 0.03 %ID/g. The tissue uptake at 24 h [2, 6] was 0.24 ± 0.02 %ID/g, the tissue uptake at 2 h ([2]; liver, 2 h pi blocked (co-injected 100-fold molar excess NOTA-PEG2-RM26), n = 3, read-out: Liver activity uptake) was 0.38 ± 0.05 %ID/g and the tissue uptake at 2 h ([2]; lungs, 100 pmol, 2 h pi, n = 4, read-out: Lungs activity uptake) was 0.6 ± 0.3 %ID/g. It also gave a tissue uptake at 4 h [2, 7] of 0.24 ± 0.08 %ID/g, a tissue uptake at 24 h [2, 7] of 0.09 ± 0.01 %ID/g and a tissue uptake at 2 h ([2]; lungs, 2 h pi blocked (co-injected 100-fold molar excess NOTA-PEG2-RM26), n = 3, read-out: Lungs activity uptake) of 0.27 ± 0.03 %ID/g. It also gave a tissue uptake at 2 h ([2]; muscle, 100 pmol, 2 h pi, n = 4, read-out: Muscle activity uptake) of 0.09 ± 0.02 %ID/g, a tissue uptake at 4 h [2, 8] of 0.1 ± 0.1 %ID/g and a tissue uptake at 24 h [2, 8] of 0.02 ± 0.01 %ID/g. For the same compound, the tissue uptake at 2 h ([2]; muscle, 2 h pi blocked (co-injected 100-fold molar excess NOTA-PEG2-RM26), n = 3, read-out: Muscle activity uptake) was 0.07 ± 0.05 %ID/g, the tissue uptake at 2 h ([2]; pancreas, 100 pmol, 2 h pi, n = 4, read-out: Pancreas activity uptake) was 11.9 ± 2.1 %ID/g and the tissue uptake at 4 h [2, 9] was 4.7 ± 0.4 %ID/g. It also gave a tissue uptake at 24 h [2, 9] of 0.5 ± 0.2 %ID/g, a tissue uptake at 2 h ([2]; small intestine, 100 pmol, 2 h pi, n = 4, read-out: Small Int. activity uptake) of 2.2 ± 0.6 %ID/g and a tissue uptake at 4 h [2, 10] of 1 ± 0.3 %ID/g. For the same compound, the tissue uptake at 24 h [2, 10] was 0.11 ± 0.03 %ID/g, the tissue uptake at 2 h ([2]; small intestine, 2 h pi blocked (co-injected 100-fold molar excess NOTA-PEG2-RM26), n = 3, read-out: Small Int. activity uptake) was 0.7 ± 0.3 %ID/g and the tissue uptake at 2 h ([2]; spleen, 100 pmol, 2 h pi, n = 4, read-out: Spleen activity uptake) was 0.4 ± 0.2 %ID/g. The tissue uptake at 4 h [2, 11] was 0.25 ± 0.07 %ID/g, the tissue uptake at 24 h [2, 11] was 0.16 ± 0.06 %ID/g and the tissue uptake at 2 h ([2]; spleen, 2 h pi blocked (co-injected 100-fold molar excess NOTA-PEG2-RM26), n = 3, read-out: Spleen activity uptake) was 0.13 ± 0.02 %ID/g. The tissue uptake at 2 h ([2]; stomach, 100 pmol, 2 h pi, n = 4, read-out: Stomach activity uptake) was 2.5 ± 0.2 %ID/g, the tissue uptake at 4 h [2, 12] was 1.9 ± 0.3 %ID/g and the tissue uptake at 24 h [2, 12] was 0.16 ± 0.05 %ID/g. The tissue uptake at 2 h ([2]; stomach, 2 h pi blocked (co-injected 100-fold molar excess NOTA-PEG2-RM26), n = 3, read-out: Stomach activity uptake) was 0.6 ± 0.1 %ID/g, the tissue uptake at 2 h ([2]; tumor, 100 pmol, 2 h pi, n = 4, read-out: Tumor activity uptake) was 23.8 ± 2.5 %ID/g and the tissue uptake at 4 h [2, 13] was 18.8 ± 0.7 %ID/g. It also gave a tissue uptake at 24 h [2, 13] of 15.3 ± 2.7 %ID/g, a tissue uptake at 2 h ([2]; tumor, 2 h pi blocked (co-injected 100-fold molar excess NOTA-PEG2-RM26), n = 3, read-out: Tumor activity uptake) of 3.4 ± 0.3 %ID/g and a tissue uptake dose at 2 h ([2]; carcass, 2 h pi, n = 4, read-out: Body activity uptake) of 2.7 ± 0.8 %ID. For the same compound, the tissue uptake dose at 4 h [2, 14] was 2.2 ± 0.4 %ID, the tissue uptake dose at 24 h [2, 14] was 1.1 ± 0.7 %ID and the tissue uptake dose at 2 h ([2]; gastrointestinal tract with content, 2 h pi, n = 4, read-out: GI activity uptake) was 2 ± 0.2 %ID. It also gave a tissue uptake dose at 4 h [2, 15] of 0.4 ± 0.3 %ID and a tissue uptake dose at 24 h [2, 15] of 0.16 ± 0.03 %ID.
